Results: patent publication US11525063B2, “Fluorescent oxygen sensing ink” (The Board of Trustees of Western Michigan University, priority 2018, dated 2022)
Where two headings read alike, the source gives them in different places.

Assays:
[1] = system: L-929 mouse fibroblast cells
Description: (§1) All samples were ≤0.5 mm thick and prepared as 8 mm-diameter discs (surface area of 0.50 cm^2). […] An aliquot was counted using trypan blue, and then cells were re-suspended in complete growth medium at a density of 1×10^5 cells/ml. […] After 24 h, the culture medium was removed and replaced with 100 μl of extractant. Some wells received sodium dodecyl sulfate (0 to 400 μM in EMEM; positive controls), low-density polyethylene extract (1.25 cm^2 LDPE/ml EMEM; negative control), or complete growth medium alone. Cells were then cultured for an additional 24 h. Images (mag. of 100× and 200×) of cell cultures were recorded by photo microscopy using a Olympus CK40 inverted microscope and Insight2 SPOT camera (Diagnostic Imaging) and the number of attached and dead cells were manually counted at a later time using ImageJ (NIH). […] Subsequently, cells in culture plates were washed once with Hank's Balanced Salt Solution and metabolic activity was measured by incubating cells with 100 μl of WST-1 cell proliferation reagent (Roche Diagnostics) for up to 4 h at 37° C. To determine cytotoxicity, absorbance of the medium in wells was measured at 450 nm after 2 and 4 h using a microplate reader (PHERAstar) and was corrected using absorbance measurements at 630 nm and using blanks. To check for mycoplasma contamination of the cultures, medium was saved and tested using the luminescent MycoAlert Plus mycoplasma detection kit (Lonza).
Absorbance is proportional to the amount of formazan product generated by the metabolic activity of cells. Thus, lower absorbance values correlate with increased cytotoxicity.
An aliquot was counted using trypan blue, and then cells were re-suspended in complete growth medium at a density of 1×10^5 cells/ml. […] After 24 h, the culture medium was removed and replaced with 100 μl of extractant. Some wells received sodium dodecyl sulfate (SDS; 0 to 400 μM in EMEM; positive controls), low-density polyethylene extract (1.25 cm^2 LDPE/ml EMEM; negative control) or complete growth medium alone. Cells were then cultured for an additional 24 h. Subsequently, cells in culture plates were washed once with HBSS and metabolic activity was measured by incubating cells with 100 μl of WST-1 cell proliferation reagent (Roche Diagnostics) for up to 4 h at 37° C.
To determine cytotoxicity, absorbance of the medium in wells was measured at 450 nm after 2 and/or 4 h using a microplate reader (PHERAstar) and was corrected using absorbance measurements at 630 nm and using blanks. Absorbance levels are proportional to the metabolic activity of cells and therefore inversely related to cytotoxicity. To check for mycoplasma contamination of the cultures, medium was saved and tested using the luminescent MycoAlert Plus mycoplasma detection kit (Lonza). Statistical significance was determined using analysis of variance and Tukey-Kramer post-test.

[2] = Effect of sterilization process (H2O2 vapor treatment) on emission peak; type: physicochemical
Description: The fluorescent properties of two materials being encapsulated in both poly-styrene and PDMS (polydimethylsiloxane) polymer binder materials were measured to determine the suitability of the materials in an oxygen sensing system. […] Then 20 μL of mixed solution was cast onto filter paper to form a patch with a diameter of 8 mm. The patch was left in the nitrogen chamber for drying for 24-hours before testing. The PDMS encapsulated sensing patches were fabricated by firstly depositing dye solution onto the filter paper. PDMS was then added to the filter paper after the removal of the solvent. The same amount of dye was used for all samples. The fluorescence spectrum was measured using a UV spectrophotometer. A zero oxygen solution was prepared by nitrogen bubbling a 0.15 mol/L Na2SO3 solution for 30 minutes.

[3] = system: L-929 mouse fibroblast cells; conditions: 150 μM SDS in EMEM, 24 h
Description: as §1, with “To check for mycoplasma contamination of the cultures, medium was saved and tested using the luminescent MycoAlert Plus mycoplasma detection kit (Lonza).” left out

Compound | cytotoxicity of extract (conclusion in words) ([1]; cells treated 24 h with extract of Sterrad-sterilized sample) | cytotoxicity of extract (conclusion in words) ([1]; cells treated 24 h with extract of Sterrad-sterilized sample, listed as ruthenium alone on paper) | Mean absorbance (corrected, 450 nm) ([1]; cells treated 24 h with extract of Sterrad-sterilized sample, lower absorbance = more cytotoxic) | metabolic activity relative to cells cultured in EMEM alone ([1]; cells treated 24 h with extract, below 70% considered cytotoxic) [%] | stability to H2O2 vapor treatment [2] | Emission peak After Sterilization ([2]; after H2O2 vapor treatment) | Emission peak Before Sterilization ([2]; before H2O2 vapor treatment) | Mean absorption reading ([1]; 300 μM SDS in EMEM, 24 h) | Concentrations of SDS that were cytotoxic ([1]; mouse) | Morphology score [3]
[Cl-].[Cl-].[Ru+2].c1ccc(-c2ccnc3c2ccc2c(-c4ccccc4)ccnc23)cc1.c1ccc(-c2ccnc3c2ccc2c(-c4ccccc4)ccnc23)cc1.c1ccc(-c2ccnc3c2ccc2c(-c4ccccc4)ccnc23)cc1 [Ru(dpp)3Cl2, Tris(4,7-diphenyl-1,10-phenanthroline) ruthenium II dichloride] | considerable cytotoxicity | cytotoxic | 0.318 | 38.4 | more vulnerable | No emission peak detected | Emission peak detected |  |  | 
CCCCCCCCCCCCOS(=O)(=O)[O-].[Na+] [SDS, sodium dodecyl sulfate, reference compound] |  |  |  |  |  |  |  | 0 | above 200 μM | 2
